From US8637677B2, “Organic dicarboxylic acids, salts and preparation method thereof” (Southeast University, priority 2009, dated 2014)

How the values were obtained:
[1] = tested on: in vitro eye lens of rats; assay: resisting oxidative damage to in vitro eye lens of rats induced by H2O2 (lens opacification grading); assay type: cell-based; settings: rat lens; for Comments (improvement versus model group) / Observation Results + (number of lenses with mild opacity, degree I) / Observation Results ++ (number of lenses with moderate opacity, degree II) / Percentages % + Degree (I) / Percentages % >++ Degrees (II, III) / Observation Results +++ (number of lenses totally opacified, degree III): 5% H2O2 + 0.02% FeCl3, 24 h culture, sample and BDL 0.5 mmol/L; for Observation Results + (number of lenses with mild opacity, degree I) / Observation Results ++ (number of lenses with moderate opacity, degree II) / Percentages % + Degree (I) / Percentages % >++ Degrees (II, III) / Observation Results +++ (number of lenses totally opacified, degree III): vitamin C 1 mmol/L; for inhibitory effects on oxidative damage to in vitro eye lens of rats induced by H2O2: sample 0.5 mmol/L, summary of table 2
Description: (§1) Some typical compounds are selected for the research on the capability of in vitro resisting oxidative damage to crystalline lens induced by H2O2. The experiments are illustrated as follows:
(§2) Kill rats and rabbits, take out their eyeballs and rinse with saline containing 500 u/mL penicillin, split the eyeball from the posterior to remove eyeball wall and vitreous body, strip off the suspensory ligament, take out the crystalline lens and wash with PBS solution containing 500 u/mL penicillin and 0.5 mg/mL streptomycin for 5 min Before experiment, check with anatomical lens to confirm that there is no opacification or other abnormal condition in the crystalline lens, then place the crystalline lens in the sterilized 12-well plate containing 2 mL DMEM/high glucose (a product from Beijing Thermo Fisher Scientific Biochemical Product Co., Ltd.) sterile culture solution (which contains 100 u/mL penicillin and 0.1 mg/mL streptomycin), add different compounds for screening and pre-culture in a incubator with temperature of 37° C., humidity of 95% and 5% CO2 for 1 h, subsequently add 2 mL DEME culture solution containing H2O2 and FeCl3 (namely, total 4 mL culture solution in each well) (the total concentration of H2O2 in each well is 2% for rabbits, and 5% for rats, and the concentrations of FeCl3 are all 0.02%), culture under the same conditions for 24 hours. The experiments are divided into several groups as below and carried out in batches, with each batch provided with negative control group and model group.
(§3) A. Negative control group: DMEM culture solution without H2O2.
(§4) B. Model group (oxidative damage group): DMEM culture solution containing H2O2 and FeCl3.
(§5) C. Vitamin C group: besides the ingredients of the model group, further containing vitamin C (the final concentration is 1 mmol/L).
(§6) D. Bendazac lysine (BDL) group (BDL is provided by Zhejiang Shapuaisi Pharmaceutical Co. Ltd., and its purity is more than 98.5%): besides the ingredients of model group, further containing BDL (the final concentration is 0.5 mmol/L).
(§7) E. Sample group: besides the ingredients of model group, further containing sample (the final concentration is 0.5 mmol/L).
(§8) Evaluation criteria: according to large amount of experiments on the model group, the ratio between the percentage of different degrees of lens turbidity in the groups and the percentage of different degrees of lens turbidity in the model group is utilized as the definition, wherein, for slight improvement (√), the percentage of ++ (degrees II, III) should be lower than 72%, and the percentage of + (degree I) should be higher than 20%; for moderate improvement (√√) the percentage of ++(degrees II, III) further decreases; and the percentage of 0 (−) appears; for significant improvement (√√√), the percentage of ++ (degrees II, III) and +(degree I) disappears, and the lens are almost transparent.

[2] = tested on: in vitro eye lens of rabbits; assay: resisting oxidative damage to in vitro eye lens of rabbits induced by H2O2 (lens opacification grading); assay type: cell-based; settings: rabbit lens; for Observation Results + (number of lenses with mild opacity, degree I) / Observation Results ++ (number of lenses with moderate opacity, degree II) / Observation Results +++ (number of lenses totally opacified, degree III) / Percentages for different degrees % + Degree (I) / Percentages for different degrees % >++ Degrees(I, II) / Comments (improvement versus model group): 2% H2O2 + 0.02% FeCl3, 24 h culture, sample and BDL 0.5 mmol/L; for Observation Results + (number of lenses with mild opacity, degree I) / Observation Results ++ (number of lenses with moderate opacity, degree II) / Observation Results +++ (number of lenses totally opacified, degree III) / Percentages for different degrees % + Degree (I) / Percentages for different degrees % >++ Degrees(I, II): vitamin C 1 mmol/L; for inhibitory effects on oxidative damage to in vitro eye lens of rabbits induced by H2O2: sample 0.5 mmol/L, table 1
Description: as §1, §2, §3, §4, §5, §6, §7
as §8, with “lens opacification” for “lens turbidity”, “than 67%,” for “than 72%,”, “than 33%;” for “than 20%;”, “improvement (√√),” for “improvement (√√)”, “and + (degree” for “and +(degree”

| Structure (SMILES) | Comments (improvement versus model group) [1] | Observation Results + (number of lenses with mild opacity, degree I) [1] | Observation Results ++ (number of lenses with moderate opacity, degree II) [1] | Percentages % + Degree (I) [1] [%] | Percentages % >++ Degrees (II, III) [1] [%] | inhibitory effects on oxidative damage to in vitro eye lens of rats induced by H2O2 [1] | Observation Results + (number of lenses with mild opacity, degree I) [2] | Observation Results ++ (number of lenses with moderate opacity, degree II) [2] | Observation Results +++ (number of lenses totally opacified, degree III) [2] | Percentages for different degrees % + Degree (I) [2] [%] | Percentages for different degrees % >++ Degrees(I, II) [2] [%] | inhibitory effects on oxidative damage to in vitro eye lens of rabbits induced by H2O2 [2] | Observation Results +++ (number of lenses totally opacified, degree III) [1] | Comments (improvement versus model group) [2] |
| --- | --- | --- | --- | --- | --- | --- | --- | --- | --- | --- | --- | --- | --- | --- |
| NCCCC[C@H](N)C(=O)O.NCCCC[C@H](N)C(=O)O.O=C(O)C(Oc1nn(Cc2cccc(F)c2)c2ccccc12)C(=O)O [Y14, 2-[1-(3-fluoro-benzyl)-1H-indazole-3-oxyl) malonate dilysine] | ✓ | 10 | 8 | 56 | 44 | showing inhibitory effects | – | – | – | – | – | – | – | – |
| O=C([O-])C(Oc1nn(Cc2ccccc2)c2ccccc12)C(=O)[O-].[K+].[K+] [Y2, 2-(1-benzyl-1H-indazole-3-oxyl) malonate dipotassium] | – | – | 3 | – | 100 | not significant | 2 | 3 | 2 | 29 | 71 | not significant | 3 | – |
| NCCCC[C@H](N)C(=O)O.NCCCC[C@H](N)C(=O)O.O=C(O)C(Oc1nn(Cc2cccc(Cl)c2)c2ccccc12)C(=O)O [Y19, 2-[1-(3-chloro-benzyl)-1H-indazole-3-oxyl]malonate dilysine] | ✓ | 18 | 10 | 56 | 44 | showing inhibitory effects | – | – | 3 | – | 100 | not significant | 4 | – |
| NCCCC[C@H](N)C(=O)O.NCCCC[C@H](N)C(=O)O.O=C(O)C(Oc1nn(Cc2ccccc2)c2ccccc12)C(=O)O [Y5, 2-(1-benzyl-1H-indazole-3-oxyl) malonate dilysine] | – | 1 | 4 | 17 | 83 | showing inhibitory effects | 2 | 2 | 2 | 33 | 67 | not significant | 1 | – |
| O=C([O-])C(Oc1nn(Cc2ccccc2)c2ccccc12)C(=O)[O-].[Na+].[Na+] [Y1, 2-(1-benzyl-1H-indazole-3-oxyl) malonate disodium] | ✓ | 4 | 1 | 80 | 20 | showing inhibitory effects | 4 | 3 | – | 57 | 43 | not significant | – | – |
| N[C@@H](Cc1c[nH]cn1)C(=O)O.N[C@@H](Cc1c[nH]cn1)C(=O)O.O=C(O)C(Oc1nn(Cc2ccccc2)c2ccccc12)C(=O)O [Y4, 2-(1-benzyl-1H-indazole-3-oxyl) malonate dihistidine] | ✓ | 18 | 3 | 86 | 14 | showing inhibitory effects | 14 | 7 | – | 67 | 33 | showing inhibitory effects | – | ✓ |
| O=C1O[C@H]([C@@H](O)CO)C(O)=C1O [VC, vitamin C, reference compound] | – | 7 | 8 | 39 | 61 | – | 13 | 16 | 2 | 42 | 58 | – | 3 | – |
| O=C(O)COc1nn(Cc2ccccc2)c2ccccc12 [BDL, Bendazac lysine, reference compound] | ✓ | 30 | 22 | 54 | 46 | – | 9 | 3 | – | 75 | 25 | – | 3 | ✓ |
